In patent publication US8629301B2, “Process for the purification of benzphetamine hydrochloride” (Mallinckrodt LLC, priority 2004, dated 2014):

Assay: partition between organic layer (toluene) and aqueous layer at adjusted pH
Details: for logD hydrocarbon water: toluene/water

## CN[C@@H](C)Cc1ccccc1 [Methamphetamine, methamphetamine]
pH 4
  partition coefficient (ratio of equilibrium concentration in the organic layer to that in the aqueous layer): 0.015
pH 6
  partition coefficient (ratio of equilibrium concentration in the organic layer to that in the aqueous layer): 0.000
pH 8
  partition coefficient (ratio of equilibrium concentration in the organic layer to that in the aqueous layer): 0.124
pH 10
  logD hydrocarbon water: 0.527

## C[C@@H](Cc1ccccc1)N(C)Cc1ccccc1 [Benzphetamine, d-N-methyl-N-benzyl-beta-phenylisopropylamine]
pH 4
  partition coefficient (ratio of equilibrium concentration in the organic layer to that in the aqueous layer): 0.600
pH 8
  partition coefficient (ratio of equilibrium concentration in the organic layer to that in the aqueous layer): ∞
pH 10
  partition coefficient (ratio of equilibrium concentration in the organic layer to that in the aqueous layer): ∞
pH 6
  logD hydrocarbon water: 1.87
